Molecular target: T1, SHP2-PTP WT (Homo sapiens, UniProt Q06124)
T1 construct: Human SHP2 PTP domain (A237–I529) expression constructs; His-tag; made in house; host or cells: E. coli BL21 (DE3)
T1 sequence (Q06124 237-529): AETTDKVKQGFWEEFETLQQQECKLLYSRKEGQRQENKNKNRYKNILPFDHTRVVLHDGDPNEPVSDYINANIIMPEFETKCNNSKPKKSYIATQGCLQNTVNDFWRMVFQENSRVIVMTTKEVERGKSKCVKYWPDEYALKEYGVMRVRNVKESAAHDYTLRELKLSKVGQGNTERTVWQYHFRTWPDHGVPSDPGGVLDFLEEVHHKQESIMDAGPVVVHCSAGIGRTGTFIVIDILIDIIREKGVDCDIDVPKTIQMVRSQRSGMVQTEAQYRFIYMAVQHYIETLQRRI
Test: BLI assay, wildtype SHP2-PTP
Settings: 1:1 binding model
Procedure: The BLI assay was performed using a FortéBio Octet 96 system. To label the biotin group on SHP2 proteins, NHS-PEG12-Biotin […] was added to the purified SHP2-PTP solution […] at 1.5:1 ratio for 2 h at 4°C. The reaction mixture was then loaded onto a column (GENEMORE, #G-MM-IGT) to remove excess free biotin. The biotin-labelled-SHP2-PTP protein was loaded onto super streptavidin (SSA) sensors (#18-5057, Octet) in a buffer containing […] 25 mM HEPES, 150 mM NaCl, and 0.02% (v/v) Tween-20. After equilibrium, the kinetics of the LIN and SHP2-PTP association were analysed by soaking the SSA sensors in a compound solution with various LIN concentrations for 300 s (6.25, 12.5, 25, 50, 100, and 200 μM), followed by 300 s of dissociation in the same HEPES buffer. The equilibrium constant (KD) values were assessed using the FortéBio data analysis software by fitting the kinetic data using a 1:1 binding model.

Kd: 666 µM
SMILES: C/C1=C\CCC2=C[C@@H](OC2=O)c2c(C)coc2C1 [LIN, linderalactone]

Source: publication PMC9946977, “Identification of linderalactone as a natural inhibitor of SHP2 to ameliorate CCl4-induced liver fibrosis” (Frontiers in Pharmacology, 2023)
